Measurements as given in ChEMBL document CHEMBL1201862, “PubChem BioAssay data set” (2004).
Activity calls are given as the source filed them. For most assays here, no stated cut-off is given here; in the data, actives have a measured EC50 and inactives only a lower limit.

How the values were obtained:
[1] = Luminescence Cell-Based Dose Confirmation HTS to Identify Activators of 5'UTR Stem-Loop Driven Alpha-Synuclein mRNA Translation in H4 Neuroglioblastoma Cells. [Related pubchem assays: 1829 (Project Summary), 1814 (Primary HTS)]; assay type: functional
H4 = test: Luminescence Cell-Based Dose Response HTS to Identify Activators of 5'UTR Stem-Loop Driven Prion Protein mRNA Translation in H4 Neuroglioblastoma Cells. [Related pubchem assays: 1829 (Project Summary), 1814 (Primary HTS)]; assay type: functional; conditions: Homo sapiens
[2] = Luminescence Cell-Based Dose Response HTS to Identify Activators of Luciferase Translation or Activity in H4 […] Cells. [Related pubchem assays: 1829 (Project Summary), 1814 (Primary HTS)]; assay type: functional
[3] = biological target: T1, Heat shock factor protein 1 (Mus musculus, UniProt P38532); test: decrease of HSF1-responsive luciferase luminescence – cell-based, NIH3T3, dose retest, confirmation (AID 2382); assay type: functional;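 further: NIH3T3 fibroblasts with HSF1-driven luciferase reporter stressed by proteasome inhibitor MG132; luminescence from HSF1-driven luciferase expression after 8 hours of MG132 stress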
T1 sequence (P38532 whole entry): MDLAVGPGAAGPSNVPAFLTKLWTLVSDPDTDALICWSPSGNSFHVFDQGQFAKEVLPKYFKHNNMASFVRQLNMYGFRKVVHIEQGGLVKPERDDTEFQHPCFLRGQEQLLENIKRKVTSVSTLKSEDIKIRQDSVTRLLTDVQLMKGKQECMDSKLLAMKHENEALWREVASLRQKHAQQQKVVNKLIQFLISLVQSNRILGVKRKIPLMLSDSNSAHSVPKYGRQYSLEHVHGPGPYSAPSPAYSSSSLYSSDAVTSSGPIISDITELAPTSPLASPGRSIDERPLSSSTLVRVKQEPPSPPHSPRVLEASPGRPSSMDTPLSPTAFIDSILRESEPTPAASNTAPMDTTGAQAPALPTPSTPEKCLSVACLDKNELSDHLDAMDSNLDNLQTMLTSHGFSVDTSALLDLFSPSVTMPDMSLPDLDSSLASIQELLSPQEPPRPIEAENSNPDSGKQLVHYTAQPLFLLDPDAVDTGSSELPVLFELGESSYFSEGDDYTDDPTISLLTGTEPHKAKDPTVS

[4] = Trypanosoma cruzi growth suppression in host cells – NIH3T3 host cells, beta-gal luminescence, confirmation (AID 2044); assay type: functional, cell-based;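 further: intracellular parasites grown in NIH/3T3 mouse fibroblasts as host cells; luminescent beta-galactosidase reporter signal from transgenic T. cruzi replicating inside host cells; inhibitors lower the luminescence signal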
[5] = NIH3T3 cell viability loss – ATP luminescence, mouse fibroblasts, counter-screen, dose response (AID 2010); assay type: functional, cell-based;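 further: cells exposed to compound for about 90 hours before reading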
Cytochrome P450 1A2 = biological target: T2, Cytochrome P450 1A2 (Homo sapiens, UniProt P05177);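 further: PubChem cytochrome P450 panel assay, CYP1A2 panel member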
T2 sequence (P05177 whole entry): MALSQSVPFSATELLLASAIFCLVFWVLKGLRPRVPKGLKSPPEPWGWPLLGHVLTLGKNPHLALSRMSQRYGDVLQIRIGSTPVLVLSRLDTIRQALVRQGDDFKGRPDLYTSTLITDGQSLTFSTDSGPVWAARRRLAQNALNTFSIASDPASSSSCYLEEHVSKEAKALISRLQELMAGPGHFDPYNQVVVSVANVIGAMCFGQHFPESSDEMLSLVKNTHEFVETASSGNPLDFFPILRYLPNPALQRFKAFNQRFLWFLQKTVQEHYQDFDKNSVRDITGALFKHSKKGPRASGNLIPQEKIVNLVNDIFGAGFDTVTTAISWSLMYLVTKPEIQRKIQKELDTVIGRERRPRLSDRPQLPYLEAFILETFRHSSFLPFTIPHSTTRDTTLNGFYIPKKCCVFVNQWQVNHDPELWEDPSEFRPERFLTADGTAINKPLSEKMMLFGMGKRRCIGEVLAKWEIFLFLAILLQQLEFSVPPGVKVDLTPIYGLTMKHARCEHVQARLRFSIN

SMILES | EC50 [1] | EC50 (H4) | EC50 [2] | further results
O=C(Nc1ccccc1)[C@@H]1[C@@H]2C(=O)N(c3ccc(F)cc3)C(=O)[C@@H]2[C@H]2C=CC=NN21 | > 120 µM (not active) | > 120 µM (not active) | > 60 µM (not active) | 
Fc1ccc(-c2csc(/C=C/c3ccc4c(c3)OCO4)n2)cc1 | 9.2 µM (active) | 46.8 µM (active) | 9.07 µM (active) | 
CCOC(=O)CN1CC23C=CC(O2)C(C(=O)NC2CCCCC2)C3C1=O (configuration not stated) |  |  |  | EC50 [3]: > 195 µM (not active)
CNC(=S)N/N=C/c1c(Cl)cccc1Cl |  |  |  | EC50 [3]: > 195 µM (not active)
CC(C)C(=O)Nc1cccc(-c2nc3ncccc3o2)c1 |  |  |  | EC50 [3]: > 195 µM (not active)
CC(C)(C)C1CCc2[nH]c3ccccc3c(=O)c2C1 (configuration not stated) |  |  |  | EC50 [4]: 1.1 µM (active); EC50 [5]: > 60 µM (not active)
Cc1cc(C)[n+]2n1C([O-])=C(c1ccccc1)C2=O |  | 13.1 µM (active) | 29.1 µM (active) | 
CCOc1ccc(CN2CCN(Cc3cccn3-c3cccnc3)CC2CCO)cc1 (configuration not stated) |  |  |  | EC50 [4]: 1.89 µM (active); EC50 [5]: > 60 µM (not active)
O=C(CN1CCN(C2CCCCC2)CC1)NCCC1=CCCCC1 |  |  |  | AC50 (Cytochrome P450 1A2): 20 µM (inconclusive)
c1ccc(CN2CCN(c3cnc4ccccc4n3)CC2)cc1 | 4.79 µM (active) | 10.9 µM (active) | 26.8 µM (active) | 
O=C(CCC1CCCNC1)c1ccccc1 (configuration not stated) |  |  |  | EC50 [3]: > 195 µM (not active)
CC(NC(=O)c1ccccc1)c1nc2ccccc2n1Cc1ccccc1F (configuration not stated) |  |  |  | AC50 (Cytochrome P450 1A2): 28.2 µM (inconclusive)
O=C(/C=C/c1ccc2c(c1)OCO2)Nc1nncs1 |  | 18.6 µM (active) | 0.1 µM (active) | 
O=C(Nc1ccn(Cc2ccccc2)n1)c1ccc2c(c1)OCO2 | 15.6 µM (active) | > 120 µM (not active) | 18.5 µM (active) | 
Cc1ccc(C(=O)NCc2ccc(N3CCN(C)CC3)cc2)cc1C |  |  |  | EC50 [3]: > 195 µM (not active)
O=C(COc1ccc(Cl)cc1Cl)NC(=O)N1CCCCC1 | 6.03 µM (active) | 92.5 µM (active) | 30.6 µM (active) | 
COc1ccc(-c2cn3c(C)c(C(=O)NCCN4CCOCC4)sc3n2)cc1 |  |  |  | AC50 (Cytochrome P450 1A2): 0.126 µM (inconclusive)
COc1ccc(N2CCN(C(=O)CSc3ncnc4scc(-c5ccc(C)cc5)c34)CC2)cc1 |  |  |  | EC50 [4]: 1.03 µM (active); EC50 [5]: > 60 µM (not active)
NC(=O)C1(N2CCCCC2)CCN(C2CC(=O)NC2=O)CC1 (configuration not stated) | > 120 µM (not active) | > 120 µM (not active) | > 120 µM (not active) | 
COc1ccccc1Cn1nnc2c(=O)[nH]c(C3CCN(C(=O)c4ccc(C)cc4)CC3)nc21 |  |  |  | AC50 (Cytochrome P450 1A2): 25.1 µM (inconclusive)
COC(=O)[C@@]1(Cc2ccc(OC)cc2)[C@H]2c3cc(C(=O)N4CCCC4)n(CCc4c[nH]c5cc(F)ccc45)c3C[C@H]2CN1C(=O)c1ccccc1 |  |  |  | AC50 (Cytochrome P450 1A2): 39.8 µM (inconclusive)
C/C(CC1CC(COCC(C)C)OC1=O)=N\Nc1nc(-c2ccccc2)cs1 (configuration not stated) | > 120 µM (not active) | 71.2 µM (active) | > 120 µM (not active) | 
O=S(=O)(NC(=NC(=S)Nc1ccccc1)c1ccccc1)c1ccc(Cl)cc1 | 41.4 µM (active) | 63.2 µM (active) | 59.7 µM (active) | 
O=C(Nc1ccc([N+](=O)[O-])cc1)C1(c2ccccc2)CCOCC1 |  |  |  | EC50 [3]: > 195 µM (not active)
COC(=O)c1ccc(OCc2cc(=O)n3ccsc3n2)cc1 | 21.2 µM (active) |  | > 120 µM (not active) | 
